Laboratory results published in patent US12064459B2, “Compositions and methods for improving skin health and for the treatment and prevention of diseases, disorders and conditions associated with pathogenic microbes” (priority 2019, dated 2024).
In brackets after ≈: the same amount, converted by molar mass. Where two headings read alike, the source gives them in different places. Where a SMILES comes first, the peptide text is derived from it.

Experiments:
DBI001 = experiment: Biolog phenotype MicroArrays: components enhancing function (efficacy) against fungal or bacterial pathogens; type: cell-based; conditions: enhancing function of human-derived Janthinobacterium lividum
E. Coli ATCC25922 = experiment: Antibiotic MIC tests; type: cell-based; conditions: Escherichia coli
DB02473 = experiment: Antibiotic MIC tests; type: cell-based, Janthinobacterium lividum; conditions: strain DB02473
Description: (§1) The antibiotic resistance profile and MICs tests were performed using Janthinobacterium lividum grown from cultures purified and grown in vegitone LB broth.

DB02378 = experiment: Antibiotic MIC tests; type: cell-based, Janthinobacterium lividum; conditions: strain DB02378
Description: as §1

DB00118 = experiment: Antibiotic MIC tests; type: cell-based, Janthinobacterium lividum; conditions: strain DB00118
Description: as §1

DB00121 = experiment: Antibiotic MIC tests; type: cell-based, Janthinobacterium lividum; conditions: strain DB00121
Description: as §1

[1] = Janthinobacterium lividum, read-out: MIC

Molecule | Concentration Range of Efficacy (DBI001) | also measured
COC1OCC(O)C(O)C1O [β-Methyl-D-Xyloside] | 1 to 5 mM | –
Mannan | 1 to 5 mM | –
O=C(O)[C@@H](O)[C@H](O)C(=O)O [D-Tartaric acid] | 1 to 5 mM | –
Laminarin | 1 to 5 mM | –
COC1OC(CO)C(O)C(O)C1O [α-Methyl-D-Mannoside] | 1 to 5 mM | –
OC[C@H](O)C(O)[C@@H](O)CO [L-Arabitol] | 1 to 5 mM | –
O=C(CO)[C@@H](O)[C@H](O)[C@H](O)CO [D-Fractose] | 2 to 20 mM | –
CC(O)CO (centres unmarked) [1,2-Propanediol] | 2 to 20 mM | –
OC[C@@H](O)[C@@H](O[C@H]1O[C@H](CO)[C@@H](O)[C@H](O)[C@H]1O)[C@H](O)[C@@H](O)CO [Maltitol] | 1 to 5 mM | –
Nc1ncnc2c1ncn2C1CC(O)C(CO)O1 (centres unmarked) [2-Deoxy Adenosine] | 2 to 20 mM | –
CO[C@@H]1O[C@H](CO)[C@@H](O)[C@H](O)[C@H]1O [β-Methyl-D-Galactoside] | 1 to 5 mM | –
CN(C)[C@@H]1C(O)=C(C(N)=O)C(=O)[C@@]2(O)C(O)=C3C(=O)c4c(O)cccc4[C@@](C)(O)[C@H]3C[C@@H]12 [Tetracycline] | – | MIC (E. Coli ATCC25922): 1 µg/mL (≈ 2.25 µM); MIC (DB02473; [1]): 0.5 µg/mL (≈ 1.13 µM); MIC (DB02378; [1]): 0.5 µg/mL (≈ 1.13 µM); MIC (DB00118; [1]): 0.5 µg/mL (≈ 1.13 µM); MIC (DB00121; [1]): 0.25 µg/mL (≈ 0.563 µM)
N[C@@H](C(=O)O)[C@@H](O)[C@H](O)[C@H](O)CO [D-Glucosaminic Acid] | 2 to 20 mM | –
CO[C@@H]1O[C@H](C(=O)O)[C@@H](O)[C@H](O)[C@H]1O [β-Methyl-D-Glucuronic Acid] | 1 to 5 mM | –
O=NO [Nitrite] | 0.1 to 1 mM | –
OC[C@H]1O[C@@H]2O[C@H]3[C@H](O)[C@@H](O)[C@@H](O[C@H]4[C@H](O)[C@@H](O)[C@@H](O[C@H]5[C@H](O)[C@@H](O)[C@@H](O[C@H]6[C@H](O)[C@@H](O)[C@@H](O[C@H]7[C@H](O)[C@@H](O)[C@@H](O[C@H]1[C@H](O)[C@H]2O)O[C@@H]7CO)O[C@@H]6CO)O[C@@H]5CO)O[C@@H]4CO)O[C@@H]3CO [α-Cyclodextrin] | 1 to 5 mM | –
O=C(O)[C@H]1OC(O)[C@H](O)[C@@H](O)[C@@H]1O (stereo partly drawn) [D-Glucoronic Acid] | 2 to 20 mM | –
C[C@H](N)C(=O)N[C@@H](CCC(=O)O)C(=O)O [Ala-Glu] (H-Ala-Glu-OH) | 0.1 to 1 mM | –
CC(O)C(N)=O (racemic) [D,L-Lactamide] | 0.1 to 1 mM | –
CO[C@@H]1O[C@H](CO)[C@@H](O)[C@H](O)[C@H]1O [β-Methyl-D-Glucoside] | 2 to 20 mM | –
O=CC[C@H](O)[C@H](O)CO [2-Deoxy-DRibose] | 1 to 5 mM | –
O=C1CCC(C(=O)O)O1 (stereo not drawn) [α-Hydroxy Glutaric Acid-g-Lactone] | 2 to 20 mM | –
Chondroitin Sulfate C | 1 to 5 mM | –
OC[C@H]1O[C@H](OC[C@H]2O[C@H](OC[C@H]3O[C@H](O[C@]4(CO)O[C@H](CO)[C@@H](O)[C@@H]4O)[C@H](O)[C@@H](O)[C@@H]3O)[C@H](O)[C@@H](O)[C@H]2O)[C@H](O)[C@@H](O)[C@H]1O [Stachyose] | 1 to 5 mM | –
Pectin | 1 to 5 mM | –
Tween 40 | 2 to 20 mM | –
OC[C@@H](O)[C@@H](O)CO [i-Erythritol] | 1 to 5 mM | –
C[C@H]1COc2c(N3CCN(C)CC3)c(F)cc3c(=O)c(C(=O)O)cn1c23 [Levofloxacin] | – | MIC (E. Coli ATCC25922): 0.063 µg/mL (≈ 0.174 µM); MIC (DB02473; [1]): 0.25 µg/mL (≈ 0.692 µM); MIC (DB02378; [1]): 0.25 µg/mL (≈ 0.692 µM); MIC (DB00118; [1]): 0.25 µg/mL (≈ 0.692 µM)

Molecule | Concentration Range of Efficacy (DBI001) | also measured
O=C(CO)[C@@H](O[C@H]1O[C@H](CO)[C@@H](O)[C@H](O)[C@H]1O)[C@H](O)[C@H](O)CO [Turanose] | 1 to 5 mM | –
NC(N)=O [Urea] | 0.1 to 1 mM | –
O=[N+]([O-])O [Nitrate] | 0.1 to 1 mM | –
OC[C@H]1O[C@H](OCC2O[C@@H](O)[C@H](O)[C@@H](O)[C@@H]2O)[C@H](O)[C@@H](O)[C@H]1O (stereo partly drawn) [D-Melibiose] | 2 to 20 mM | –
CCC[C@@H]1C[C@@H](C(=O)N[C@@H]([C@H]2O[C@H](SC)[C@H](O)[C@@H](O)[C@H]2O)[C@H](C)Cl)N(C)C1 [Clindamycin] | – | MIC (E. Coli ATCC25922): < 64 µg/mL; MIC (DB02473; [1]): 16 µg/mL (≈ 37.6 µM); MIC (DB02378; [1]): 32 µg/mL (≈ 75.3 µM); MIC (DB00118; [1]): 32 µg/mL (≈ 75.3 µM); MIC (DB00121; [1]): 16 µg/mL (≈ 37.6 µM)
Maltotriose | 2 to 20 mM | –
OC[C@H]1O[C@@H](O[C@H]2[C@H](O)[C@@H](O)[C@H](O)O[C@@H]2CO)[C@H](O)[C@@H](O)[C@@H]1O [D-Cellobiose] | 2 to 20 mM | –
O=C[C@@H](O)[C@H](O[C@@H]1O[C@H](CO)[C@H](O)[C@H](O)[C@H]1O)[C@H](O)CO [3-0-β-D-Galactopyranosyl-D Arabinose] | 1 to 5 mM | –
OC[C@@]12OC[C@@H](O1)[C@@H](O)[C@@H](O)[C@@H]2O [Sedoheptulosan] | 1 to 5 mM | –
CO[C@H]1O[C@H](CO)[C@@H](O)[C@H](O)[C@H]1O [α-Methyl-D-Glucoside] | 1 to 5 mM | –
CO/N=C(\C(=O)N[C@@H]1C(=O)N2C(C(=O)O)=C(CSc3nc(=O)c(=O)[nH]n3C)CS[C@H]12)c1csc(N)n1 [Ceftriaxone] | – | MIC (E. Coli ATCC25922): < 0.063 µg/mL; MIC (DB02473; [1]): 0.5 µg/mL (≈ 0.902 µM); MIC (DB02378; [1]): 0.25 µg/mL (≈ 0.451 µM); MIC (DB00118; [1]): 0.5 µg/mL (≈ 0.902 µM); MIC (DB00121; [1]): 0.25 µg/mL (≈ 0.451 µM)
Neomycin | – | MIC (DB02473): 2 µg/mL; MIC (DB02378): 2 µg/mL; MIC (DB00118): 2 µg/mL; MIC (DB00121): 1 µg/mL
CO/N=C(\C(=O)N[C@@H]1C(=O)N2C(C(=O)[O-])=C(C[N+]3(C)CCCC3)CS[C@H]12)c1csc(N)n1 [Cefepime] | – | MIC (E. Coli ATCC25922): < 0.063 µg/mL; MIC (DB00118; [1]): 0.25 µg/mL (≈ 0.52 µM)
OC[C@H]1O[C@@](CO)(O[C@H]2O[C@H](CO)[C@@H](O)[C@H](O)[C@H]2O)[C@@H](O[C@H]2O[C@H](CO)[C@@H](O)[C@H](O)[C@H]2O)[C@@H]1O [D-Melezitose] | 1 to 5 mM | –
OC[C@@H](O)[C@H](O)[C@H](O)[C@@H](O)CO [Dulcitol] | 2 to 20 mM | –
Inulin | 1 to 5 mM | –
OC[C@H]1O[C@H](OC[C@H]2OC(O)(CO)[C@@H](O)[C@@H]2O)[C@H](O)[C@@H](O)[C@@H]1O (some centres unmarked) [Palatinose] | 1 to 5 mM | –
O=P(O)(O)O[C@H]1O[C@H](CO)[C@@H](O)[C@H](O)[C@H]1O [D-Glucose-1-Phosphate] | 2 to 20 mM | –
O=P(O)(O)OCC(O)CO (racemic) [D,L-α-Glycerol Phosphate] | 2 to 20 mM | –
OC[C@H]1O[C@@H]2O[C@H]3[C@H](O)[C@@H](O)[C@@H](O[C@H]4[C@H](O)[C@@H](O)[C@@H](O[C@H]5[C@H](O)[C@@H](O)[C@@H](O[C@H]6[C@H](O)[C@@H](O)[C@@H](O[C@H]7[C@H](O)[C@@H](O)[C@@H](O[C@H]8[C@H](O)[C@@H](O)[C@@H](O[C@H]1[C@H](O)[C@H]2O)O[C@@H]8CO)O[C@@H]7CO)O[C@@H]6CO)O[C@@H]5CO)O[C@@H]4CO)O[C@@H]3CO [β-Cyclodextrin] | 1 to 5 mM | –
CC[C@H]1OC(=O)[C@H](C)[C@@H](O[C@H]2C[C@@](C)(OC)[C@@H](O)[C@H](C)O2)[C@H](C)[C@@H](O[C@@H]2O[C@H](C)C[C@H](N(C)C)[C@H]2O)[C@](C)(O)C[C@@H](C)CN(C)[C@H](C)[C@@H](O)[C@]1(C)O [Azithromycin] | – | MIC (E. Coli ATCC25922): 8 µg/mL (≈ 10.7 µM); MIC (DB02473; [1]): 1 µg/mL (≈ 1.34 µM); MIC (DB02378; [1]): 2 µg/mL (≈ 2.67 µM); MIC (DB00118; [1]): 8 µg/mL (≈ 10.7 µM); MIC (DB00121; [1]): 0.5 µg/mL (≈ 0.668 µM)
CN(C)c1ccc(O)c2c1C[C@H]1C[C@H]3[C@H](N(C)C)C(O)=C(C(N)=O)C(=O)[C@@]3(O)C(O)=C1C2=O [Minocycline] | – | MIC (E. Coli ATCC25922): 0.25 µg/mL (≈ 0.546 µM); MIC (DB02473; [1]): 0.25 µg/mL (≈ 0.546 µM); MIC (DB00121; [1]): < 0.063 µg/mL
dextrin | 1 to 5 mM | –
COC1OC(CO)C(O)C(O)C1O [α-Methyl-D-Galactoside] | 2 to 20 mM | –
Glycogen | 1 to 5 mM | –
OC[C@@H](O)C(O)[C@H](O)CO [D-Arabitol] | 1 to 5 mM | –
OC[C@H]1O[C@@H]2O[C@H]3[C@H](O)[C@@H](O)[C@@H](O[C@H]4[C@H](O)[C@@H](O)[C@@H](O[C@H]5[C@H](O)[C@@H](O)[C@@H](O[C@H]6[C@H](O)[C@@H](O)[C@@H](O[C@H]7[C@H](O)[C@@H](O)[C@@H](O[C@H]8[C@H](O)[C@@H](O)[C@@H](O[C@H]9[C@H](O)[C@@H](O)[C@@H](O[C@H]1[C@H](O)[C@H]2O)O[C@@H]9CO)O[C@@H]8CO)O[C@@H]7CO)O[C@@H]6CO)O[C@@H]5CO)O[C@@H]4CO)O[C@@H]3CO [g-Cyclodextrin] | 1 to 5 mM | –
